# Measurements taken from US20050080113A1, “Medicinal compositions” (priority 2001, published 2005).
row,SMILES,melting point [°C]
1,"CCC(=O)Nc1cc(-c2sc(C)nc2-c2cccc(Cl)c2)ccn1 [H 30-7, N-[4-[4-(3-chlorophenyl)-2-methyl-1,3-thiazol-5-yl]-2-pyridyl]propionamide]",134 to 135
2,CCC(=O)Nc1cc(-c2sc(C3CCNCC3)nc2-c2cccc(Cl)c2)ccn1.Cl.Cl,202 to 203
3,"Cc1cccc(-c2nc(C(C)(F)F)sc2-c2ccnc(N)c2)c1 [H 113-2, 4 [2 (1,1 difluoroethyl)-4 (3 methylphenyl)-1,3 thiazol-5 yl]-2 pyridylamine]",140 to 141
4,"CC(=O)Nc1cc(-c2sc(-c3ccc(S(C)(=O)=O)cc3)nc2-c2cccc(C)c2)ccn1 [H 98-1, N-[4 [4 (3 methylphenyl)-2-(4 methylsulfonylphenyl)-1,3 thiazol-5 yl]-2 pyridyl]acetamide]",222 to 223
5,"Cc1cc(-c2sc(N)nc2-c2ccc(F)cc2)ccn1 [H 7-8, [4 (4 fluorophenyl)-5 (2-methyl-4 pyridyl)-1,3 thiazol-2 yl]amine]",233 to 234
6,"CCC(=O)Nc1cc(-c2sc(CC)nc2-c2cccc(Cl)c2)ccn1 [H 30-8, N-[4-[4-(3-chlorophenyl)-2-ethyl-1,3-thiazol-5-yl]-2-pyridyl]propionamide]",132 to 133
7,"CCc1nc(-c2cccc(C)c2)c(-c2ccnc(NC(=O)c3ccsc3)c2)s1 [L 39-1, N-[4 [2 ethyl-4 (3-methylphenyl)-1,3 thiazol-5 yl]-2 pyridyl]-3-thiophenecarboxamide]",99 to 101
8,CCc1nc(-c2cccc(Cl)c2)c(-c2ccnc(N[C@@H](C)c3ccccc3)c2)s1.Cl,165 to 166
9,"Cc1cccc(N2C=C(c3cc(C)nc(C)c3)SC2N)c1 (stereo not drawn) [H 7-6, [5 (2,6 dimethyl-4-pyridyl)-3 (3 methylphenyl)-1,3 thiazol-2 yl]amine]",214 to 216
10,"Cc1cc(C)cc(-c2nc(NC(=O)Nc3ccccc3)sc2-c2cc(C)nc(C)c2)c1 [H 53-1, N-[4 (3,5 dimethylphenyl)-5 (2,6 dimethyl-4 pyridyl)-1,3 thiazol-2 yl]-N′-phenylurea]",219 to 222
11,"CCc1nc(-c2cccc(C#N)c2)c(-c2ccnc(N)c2)s1 [H 76, 4 [4 (3 cyanophenyl)-2 ethyl-1,3 thiazol-5 yl]-2 pyridylamine]",178 to 179
12,"Cc1nc(-c2cccc(Cl)c2)c(-c2ccnc(NC(=O)Cc3ccccc3)c2)s1 [L 68-3, N-[4 [4 (3 chlorophenyl)-2-methyl-1,3 thiazol-5 yl]-2 pyridyl]phenylacetamide]",99 to 101
13,"Cc1cccc(-c2nc(-c3ccc(Cl)cc3)sc2-c2ccnc(C)c2)c1 [H 14-2, 2 (4 chlorophenyl)-4 (3-methylphenyl)-5 (2 methyl-4 pyridyl)-1,3 thiazole]",104 to 105
14,"CCc1nc(-c2cccs2)c(-c2ccnc(N)c2)s1 [H 20-12, 4 [2 ethyl-4 (2 thienyl)-1,3 thiazol-5 yl]-2 pyridylamine]",159 to 160
15,"Cc1cccc(-c2nc(-c3ccc(F)cc3)sc2-c2ccnc(N)c2)c1 [H 18-1, 4 [2 (4 fluorophenyl)-4-(3 methylphenyl)-1,3 thiazol-5 yl]-2 pyridylamine]",160 to 162
16,"CCc1nc(-c2ccc(Cl)cc2)c(-c2ccnc(NC(C)=O)c2)s1 [H 82-6, N-[4 [4 (4 chlorophenyl)-2-ethyl-1,3 thiazol-5 yl]-2 pyridyl]acetamide]",190 to 191
17,"CCc1nc(-c2cccc(C)c2)c(-c2ccnc(NC(=O)CC3CCCC3)c2)s1 [H 89, N-[4 [2 ethyl-4 (3-methylphenyl)-1,3 thiazol-5 yl]-2 pyridyl]cyclopentylacetamide]",85 to 86
18,"COc1ccc(-c2nc(NC(=O)c3ccccc3)sc2-c2ccnc(N)c2)cc1 [H 51, N-[5 (2 amino-4 pyridyl)-4-(4 methoxyphenyl)-1,3 thiazol-2 yl]benzamide]",219 to 222
